US20140179794A1, “LEVOMILNACIPRAN-BASED DRUG FOR FUNCTIONAL RECOVERY AFTER ACUTE NEUROLOGICAL EVENTS” (PIERRE FABRE MEDICAMENT, priority 2011, published 2014)

Assay: Binding to the recombinant human alpha1 receptor (prazosin [3H], CHO cell membranes)
Source text: The bound fraction was separated by filtration and washing in cooled TRIS+NaCl+KCl buffer. […] The bound fraction was separated by filtration and washing in cooled TRIS+NaCl+KCl buffer. […] The bound fraction was separated by filtration and washing in cooled TRIS buffer.

CCN(CC)C(=O)C1(c2ccccc2)CC1CN (centres unmarked) [dextromilnacipran]
Ki: 3.4 µM

CCN(CC)C(=O)[C@@]1(c2ccccc2)C[C@H]1CN [levomilnacipran]
Ki: 110 µM
